Assay results from ChEMBL document CHEMBL1132484, “New alpha-substituted succinate-based hydroxamic acids as TNFalpha convertase inhibitors” (J Med Chem, 1999).

Assays:
[1] = target: T1, Disintegrin and metalloproteinase domain-containing protein 17 (Homo sapiens, UniProt P78536); assay: Inhibition of TNF(tumor necrosis factor) in human blood; assay type: functional
[2] = target: T1, Disintegrin and metalloproteinase domain-containing protein 17; assay: Inhibitory activity against Tumor necrosis factor alpha-converting enzyme (TACE) in blood.; assay type: tissue-based

T1 sequence (P78536 whole entry, the tested form may be a part): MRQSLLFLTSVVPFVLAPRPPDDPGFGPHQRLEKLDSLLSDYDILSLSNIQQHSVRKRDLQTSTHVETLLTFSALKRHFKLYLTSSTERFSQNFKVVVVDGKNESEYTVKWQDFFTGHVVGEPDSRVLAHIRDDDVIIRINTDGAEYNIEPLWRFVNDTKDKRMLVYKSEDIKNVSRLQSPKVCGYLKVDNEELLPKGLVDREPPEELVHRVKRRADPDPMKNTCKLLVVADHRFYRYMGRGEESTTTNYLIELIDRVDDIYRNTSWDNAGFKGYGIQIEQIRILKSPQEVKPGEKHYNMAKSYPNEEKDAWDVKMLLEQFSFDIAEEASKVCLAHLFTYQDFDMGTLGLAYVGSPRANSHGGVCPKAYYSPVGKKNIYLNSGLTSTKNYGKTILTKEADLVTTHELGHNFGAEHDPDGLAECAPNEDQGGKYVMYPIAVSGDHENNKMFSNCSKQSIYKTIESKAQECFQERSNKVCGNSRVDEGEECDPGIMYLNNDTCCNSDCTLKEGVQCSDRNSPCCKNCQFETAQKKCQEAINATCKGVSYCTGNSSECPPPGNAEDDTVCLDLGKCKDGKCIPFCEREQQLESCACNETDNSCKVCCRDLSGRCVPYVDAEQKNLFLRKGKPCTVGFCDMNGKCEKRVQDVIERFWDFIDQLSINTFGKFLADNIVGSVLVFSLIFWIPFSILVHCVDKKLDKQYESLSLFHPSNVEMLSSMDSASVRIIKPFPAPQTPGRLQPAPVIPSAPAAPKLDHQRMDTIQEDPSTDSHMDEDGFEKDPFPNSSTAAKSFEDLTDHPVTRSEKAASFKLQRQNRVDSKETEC

Row | Compound | IC50 [1] [nM] | IC50 [2] [nM]
1 | CNC(=O)[C@H](Cc1ccccc1)NC(=O)[C@H](CC(C)C)[C@H](CSc1ccccc1)C(=O)NO | 5300 | 1.8
2 | CNC(=O)[C@@H](NC(=O)[C@H](CC(C)C)[C@H](NCc1ccc2ccccc2c1)C(=O)NO)C(C)(C)C | 6700 | 0.57
3 | CNC(=O)[C@@H](NC(=O)[C@H](CC(C)C)[C@H](NS(=O)(=O)c1c(C(C)C)cc(C(C)C)cc1C(C)C)C(=O)NO)C(C)(C)C |  | 13
4 | CNC(=O)[C@@H](NC(=O)[C@H](CC(C)C)[C@H](NC(=O)c1cccnc1)C(=O)NO)C(C)(C)C |  | 22
5 | CNC(=O)[C@@H](NC(=O)[C@H](CC(C)C)[C@H](OCc1cc2ccccc2n(C)c1=O)C(=O)NO)C(C)(C)C | 2350 | 0.44
6 | CCCN([C@H](C(=O)NO)[C@@H](CC(C)C)C(=O)N[C@H](C(=O)NC)C(C)(C)C)S(=O)(=O)c1cccc2cccnc12 |  | 10
7 | CNC(=O)[C@@H](NC(=O)[C@H](CC(C)C)[C@H](NC(=O)c1ccc2ccccc2c1)C(=O)NO)C(C)(C)C | > 20000 | 3.3
8 | CNC(=O)[C@@H](NC(=O)[C@H](CC(C)C)[C@H](OCc1cccc2cccnc12)C(=O)NO)C(C)(C)C | 8200 | 0.4
9 | CNC(=O)[C@@H](NC(=O)[C@H](CC(C)C)[C@H](NS(=O)(=O)c1ccc2c(c1)CC(=O)N2)C(=O)NO)C(C)(C)C | 1500 | 2.8
10 | CNC(=O)[C@@H](NC(=O)[C@H](CC(C)C)[C@H](OCc1ccc2nc(C)nc(O)c2c1)C(=O)NO)C(C)(C)C | 2400 | 0.43
11 | CNC(=O)[C@@H](NC(=O)[C@H](CC(C)C)[C@H](NC(=O)c1ccc2ncccc2c1)C(=O)NO)C(C)(C)C |  | 9.5
12 | CNC(=O)[C@@H](NC(=O)[C@H](CC(C)C)[C@H](NS(=O)(=O)c1ccc2ccccc2c1)C(=O)NO)C(C)(C)C | 1200 | 0.66
13 | CNC(=O)[C@@H](NC(=O)[C@H](CC(C)C)[C@H](NS(=O)(=O)/C=C/c1ccccc1)C(=O)NO)C(C)(C)C | 770 | 0.54
14 | CNC(=O)[C@@H](NC(=O)[C@H](CC(C)C)[C@H](Sc1cc(Cl)cc(Cl)c1)C(=O)NO)C(C)(C)C | 4900 | 0.42
15 | CNC(=O)[C@@H](NC(=O)[C@H](CC(C)C)[C@H](NS(=O)(=O)CCc1ccncc1)C(=O)NO)C(C)(C)C | 700 | 1.3
16 | CNC(=O)[C@@H](NC(=O)[C@H](CC(C)C)[C@@H](C(=O)NO)N1CCCC1)C(C)(C)C | 6100 | 2.8
17 | CNC(=O)[C@@H](NC(=O)[C@H](CC(C)C)[C@H](NS(=O)(=O)c1cccc2ccccc12)C(=O)NO)C(C)(C)C | 3100 | 1.2
18 | CNC(=O)[C@@H](NC(=O)[C@H](CC(C)C)[C@@H](Sc1ccccc1)C(=O)NO)C(C)(C)C |  | 1
19 | CNC(=O)[C@@H](NC(=O)[C@H](CC(C)C)[C@H](Sc1ccccc1)C(=O)NO)C(C)(C)C |  | 188
20 | CNC(=O)[C@@H](NC(=O)[C@H](CC(C)C)[C@H](NS(=O)(=O)c1ccc(C(=O)O)cc1)C(=O)NO)C(C)(C)C | 4400 | 3.2
21 | CCS[C@H](C(=O)NO)[C@@H](CC(C)C)C(=O)N[C@H](C(=O)NC)C(C)(C)C | 5600 | 1.5
22 | CNC(=O)[C@@H](NC(=O)[C@H](CC(C)C)[C@H](NS(=O)(=O)c1cccnc1)C(=O)NO)C(C)(C)C | 3800 | 2.1
23 | CNC(=O)[C@@H](NC(=O)[C@H](CC(C)C)[C@H](SC)C(=O)NO)C(C)(C)C | 2300 | 1.6
24 | CNC(=O)[C@@H](NC(=O)[C@H](CC(C)C)[C@H](Sc1ccc2c(c1)CCC(=O)N2C)C(=O)NO)C(C)(C)C | 6600 | 1.4

Row | Compound | IC50 [1] [nM] | IC50 [2] [nM]
25 | CNC(=O)[C@@H](NC(=O)[C@H](CC(C)C)[C@H](OCc1ccc2oc(=O)ccc2c1)C(=O)NO)C(C)(C)C | 3600 | 0.79
26 | CNC(=O)[C@@H](NC(=O)[C@H](CC(C)C)[C@H](NS(C)(=O)=O)C(=O)NO)C(C)(C)C | 1600 | 2.2
27 | CNC(=O)[C@@H](NC(=O)[C@H](CC(C)C)[C@H](Sc1ccc(OC)c(OC)c1)C(=O)NO)C(C)(C)C |  | 1.2
28 | CNC(=O)[C@@H](NC(=O)[C@H](CC(C)C)[C@H](OCCc1ccc2sc(C)nc2c1)C(=O)NO)C(C)(C)C | 3500 | 0.21
29 | CNC(=O)[C@@H](NC(=O)[C@H](CC(C)C)[C@H](NS(=O)(=O)c1cccc2c(=O)[nH]cnc12)C(=O)NO)C(C)(C)C | 4900 | 3.4
30 | CNC(=O)[C@@H](NC(=O)[C@H](CC(C)C)[C@H](OCc1cccc2ccccc12)C(=O)NO)C(C)(C)C | 7600 | 0.33
31 | CNC(=O)[C@@H](NC(=O)[C@H](CC(C)C)[C@H](OCc1cccc2nccnc12)C(=O)NO)C(C)(C)C | 7600 | 1.1
32 | CNC(=O)[C@@H](NC(=O)[C@H](CC(C)C)[C@H](Sc1ccc(C#N)cc1)C(=O)NO)C(C)(C)C | 3300 | 0.63
33 | CNC(=O)[C@@H](NC(=O)[C@H](CC(C)C)[C@H](NS(=O)(=O)c1ccc2c(c1)CCC(=O)N2C)C(=O)NO)C(C)(C)C | 3000 | 2.9
34 | CNC(=O)[C@@H](NC(=O)[C@H](CC(C)C)[C@H](OCc1ccc2ccccc2c1)C(=O)NO)C(C)(C)C | 7300 | 0.6
35 | CNC(=O)[C@@H](NC(=O)[C@H](CC(C)C)[C@H](Sc1cccc(C(C)(C)C#N)c1)C(=O)NO)C(C)(C)C | 2800 | 1.6
36 | CNC(=O)[C@@H](NC(=O)[C@H](CC(C)C)[C@H](OC)C(=O)NO)C(C)(C)C | 5000 | 1.5
37 | CNC(=O)[C@@H](NC(=O)[C@H](CC(C)C)[C@H](NCCCSC)C(=O)NO)C(C)(C)C | 4600 | 1.3
38 | CNC(=O)[C@@H](NC(=O)[C@H](CC(C)C)[C@H](Sc1ccc(S(C)(=O)=O)cc1)C(=O)NO)C(C)(C)C | 2100 | 1.25
39 | CNC(=O)[C@@H](NC(=O)[C@H](CC(C)C)[C@H](NCc1ccc2ccccc2n1)C(=O)NO)C(C)(C)C | 5700 | 1
40 | CNC(=O)[C@@H](NC(=O)[C@H](CC(C)C)[C@H](NS(=O)(=O)c1cccs1)C(=O)NO)C(C)(C)C | 2800 | 1.5
41 | CNC(=O)[C@@H](NC(=O)[C@H](CC(C)C)[C@H](Sc1ccc(F)cc1Cl)C(=O)NO)C(C)(C)C | 11000 | 1.1
42 | CNC(=O)[C@@H](NC(=O)C(CC(C)C)C(NS(=O)(=O)c1cnc[nH]1)C(=O)NO)C(C)(C)C (single isomer, unassigned) |  | 9
43 | CNC(=O)[C@@H](NC(=O)C(CC(C)C)C(C(=O)NO)N(Cc1ccccc1)S(=O)(=O)c1cccc2cccnc12)C(C)(C)C (single isomer, unassigned) |  | 85
44 | CNC(=O)[C@@H](NC(=O)C(CC(C)C)C(NC(C)=O)C(=O)NO)C(C)(C)C (single isomer, unassigned) |  | 13
45 | CNC(=O)[C@@H](NC(=O)C(CC(C)C)C(NS(=O)(=O)c1ccc(F)cc1Cl)C(=O)NO)C(C)(C)C (single isomer, unassigned) |  | 9.7
46 | CNC(=O)[C@@H](NC(=O)C(CC(C)C)C(NS(=O)(=O)c1ccccc1C#N)C(=O)NO)C(C)(C)C (single isomer, unassigned) |  | 17
47 | CNC(=O)[C@@H](NC(=O)C(CC(C)C)C(NC(=O)c1ccccc1)C(=O)NO)C(C)(C)C (single isomer, unassigned) |  | 9
